Experimental data as given in article PMC9203742 (Nature Communications, 2022).
Where “and” joins values, the source holds several entries; their conditions need not be identical. Equal entries are not always repeated.

Tests used:
WT mGlu1 = target: T1, WT mGlu1 (Rattus norvegicus, UniProt P23385); type: cell-based; note: test concentration or dose not given here
T1 construct: expressed in transfected cells; host or cells: HEK293

mGlu1 P58H/N264H mutant = target: T2, mGlu1 P58H/N264H mutant (Rattus norvegicus, UniProt P23385, N264H/P58H); test: Fura-2 Ca2+ imaging in HEK293 cells expressing mGlu1 P58H/N264H; type: cell-based
T2 construct: expressed in transfected cells; host or cells: HEK293

mGlu1 A59H/N264H mutant = target: T3, mGlu1 A59H/N264H mutant (Rattus norvegicus, UniProt P23385, A59H/N264H); test: Fura-2 Ca2+ imaging in HEK293 cells expressing mGlu1 A59H/N264H; type: cell-based
T3 construct: expressed in transfected cells; host or cells: HEK293

mGlu1 K61H/N264H mutant = target: T4, mGlu1 K61H/N264H mutant (Rattus norvegicus, UniProt P23385, K61H/N264H); test: Fura-2 Ca2+ imaging in HEK293 cells expressing mGlu1 K61H/N264H; type: cell-based
T4 construct: expressed in transfected cells; host or cells: HEK293

mGlu1 P57H/N264H mutant = target: T5, mGlu1 P57H/N264H mutant (Rattus norvegicus, UniProt P23385, N264H/P57H); test: Fura-2 Ca2+ imaging in HEK293 cells expressing mGlu1 P57H/N264H; type: cell-based
T5 construct: expressed in transfected cells; host or cells: HEK293

mGlu1 E60H/N264H mutant = target: T6, mGlu1 E60H/N264H mutant (Rattus norvegicus, UniProt P23385, E60H/N264H); test: Fura-2 Ca2+ imaging in HEK293 cells expressing mGlu1 E60H/N264H; type: cell-based
T6 construct: expressed in transfected cells; host or cells: HEK293

[1] = system: HEK293 cells, vector control; test: Fura-2 Ca2+ imaging in HEK293 cells transfected with control vector (Vec); type: cell-based; conditions: single-cell values #1-#20; for Ca2+ response of individual cells (source data Suppl Fig1), Vec: test concentration or dose not given here
[2] = system: mGlu1 construct not given; test: Fura-2 Ca2+ imaging in HEK293 cells, source data Suppl Fig1, left group (c0-c8); construct not given; type: cell-based, rat; conditions: single-cell values, cells #15-#20; left group of third block
From the text: (§1) Supplement 41467_2022_30828_MOESM6_ESM.zip/Ojima et al_source data_Suppl Fig.xlsx, sheet "Suppl Fig1" | column: Glu; NiCl2; CuCl2; ZnCl2; CdCl2; Na2PdCl2; Pd(bpy)

[3] = system: HEK293 cells, vector control; test: Fura-2 Ca2+ imaging in HEK293 cells transfected with control vector (Vec); type: cell-based; conditions: Fig.1e; for Ca2+ response of individual cells (source data Suppl Fig1), Vec: test concentration or dose not given here
From the text: Supplement 41467_2022_30828_MOESM6_ESM.zip/Ojima et al_source data_Main Figure.xlsx, sheet "Fig.1e" | column: Vec

mGlu1 A59H/A265H mutant [4] = target: T7, mGlu1 A59H/A265H mutant (Rattus norvegicus, UniProt P23385, A265H/A59H); test: Fura-2 Ca2+ imaging in HEK293 cells expressing mGlu1 A59H/A265H; type: cell-based; conditions: single-cell values
T7 construct: expressed in transfected cells; host or cells: HEK293

[5] = system: mGlu1 construct not given; test: Fura-2 Ca2+ imaging in HEK293 cells, source data Suppl Fig1, middle group (c9-c17); construct not given; type: cell-based, rat; conditions: single-cell values, cells #15-#20; middle group of third block
From the text: as §1

mGlu1 A59H/A265H mutant [6] = target: T7, mGlu1 A59H/A265H mutant; test: Fura-2 Ca2+ imaging in HEK293 cells expressing mGlu1 A59H/A265H; type: cell-based; conditions: Fig.1e
mGlu1 A59H/G266H mutant [7] = target: T8, mGlu1 A59H/G266H mutant (Rattus norvegicus, UniProt P23385, A59H/G266H); test: Fura-2 Ca2+ imaging in HEK293 cells expressing mGlu1 A59H/G266H; type: cell-based; conditions: single-cell values; for Ca2+ response (delta ratio), A59H/G266H: test concentration or dose not given here
T8 construct: expressed in transfected cells; host or cells: HEK293

[8] = system: mGlu1 construct not given; test: Fura-2 Ca2+ imaging in HEK293 cells, source data Suppl Fig1, right group (c18-c26); construct not given; type: cell-based, rat; conditions: single-cell values, cells #15-#20; right group of third block
From the text: as §1

mGlu1 A59H/G266H mutant [9] = target: T8, mGlu1 A59H/G266H mutant; test: Fura-2 Ca2+ imaging in HEK293 cells expressing mGlu1 A59H/G266H; type: cell-based; conditions: Fig.1e

T8 sequence (P23385 19-1199 A59H/G266H): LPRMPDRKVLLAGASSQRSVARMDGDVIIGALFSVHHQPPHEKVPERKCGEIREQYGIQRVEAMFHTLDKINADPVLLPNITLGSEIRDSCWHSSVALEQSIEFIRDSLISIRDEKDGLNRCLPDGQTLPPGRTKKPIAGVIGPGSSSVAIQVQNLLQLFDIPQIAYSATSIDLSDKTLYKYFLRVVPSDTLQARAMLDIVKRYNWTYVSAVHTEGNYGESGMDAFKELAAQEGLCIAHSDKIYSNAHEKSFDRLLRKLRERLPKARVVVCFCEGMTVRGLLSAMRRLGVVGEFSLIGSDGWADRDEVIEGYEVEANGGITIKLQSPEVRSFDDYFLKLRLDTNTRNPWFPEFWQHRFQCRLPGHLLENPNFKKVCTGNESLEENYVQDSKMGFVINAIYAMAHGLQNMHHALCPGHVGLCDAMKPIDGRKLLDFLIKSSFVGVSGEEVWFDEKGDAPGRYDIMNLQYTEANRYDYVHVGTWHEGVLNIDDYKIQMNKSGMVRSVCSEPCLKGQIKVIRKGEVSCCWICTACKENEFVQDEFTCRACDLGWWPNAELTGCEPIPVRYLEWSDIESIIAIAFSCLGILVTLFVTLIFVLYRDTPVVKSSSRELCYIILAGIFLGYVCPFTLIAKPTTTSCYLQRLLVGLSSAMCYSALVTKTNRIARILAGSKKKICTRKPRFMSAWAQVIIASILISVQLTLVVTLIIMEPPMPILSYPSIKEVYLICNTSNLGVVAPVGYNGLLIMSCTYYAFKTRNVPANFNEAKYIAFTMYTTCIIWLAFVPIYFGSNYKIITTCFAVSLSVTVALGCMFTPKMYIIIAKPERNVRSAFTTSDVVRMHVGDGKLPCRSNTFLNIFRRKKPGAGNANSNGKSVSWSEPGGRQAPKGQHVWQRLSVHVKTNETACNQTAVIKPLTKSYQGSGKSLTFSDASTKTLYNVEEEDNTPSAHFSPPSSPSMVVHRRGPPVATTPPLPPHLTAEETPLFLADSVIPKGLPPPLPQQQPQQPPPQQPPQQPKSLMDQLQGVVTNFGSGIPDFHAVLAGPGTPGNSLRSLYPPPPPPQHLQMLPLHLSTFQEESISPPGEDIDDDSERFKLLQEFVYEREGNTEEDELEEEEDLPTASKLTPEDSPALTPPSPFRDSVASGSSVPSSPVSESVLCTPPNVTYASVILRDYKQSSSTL
T5 sequence (P23385 19-1199 P57H/N264H): as the sequence (P23385 19-1199 A59H/G266H) above, with P39H, H41A, N246H, H248G counted along it
T4 sequence (P23385 19-1199 K61H/N264H): as the sequence (P23385 19-1199 A59H/G266H) above, with H41A, K43H, N246H, H248G counted along it
T3 sequence (P23385 19-1199 A59H/N264H): as the sequence (P23385 19-1199 A59H/G266H) above, with N246H, H248G counted along it
T1 sequence (P23385 19-1199): as the sequence (P23385 19-1199 A59H/G266H) above, with H41A, H248G counted along it
T6 sequence (P23385 19-1199 E60H/N264H): as the sequence (P23385 19-1199 A59H/G266H) above, with H41A, E42H, N246H, H248G counted along it
T7 sequence (P23385 19-1199 A59H/A265H): as the sequence (P23385 19-1199 A59H/G266H) above, with A247H, H248G counted along it
T2 sequence (P23385 19-1199 P58H/N264H): as the sequence (P23385 19-1199 A59H/G266H) above, with P40H, H41A, N246H, H248G counted along it

Structure (SMILES): [Cl][Cu][Cl] [CuCl2]
- Ca2+ response (delta ratio), WT (WT mGlu1; Fig.1e): 0.02902
- Ca2+ response of individual cells (source data Suppl Fig1), WT (WT mGlu1; single-cell values #1-#20, WT): 0.02565 and 0.01115 and 0.003838 and 0.01123 and 0.01654 and 0.01648 and -0.004477 and -0.001046 and -0.0009077 and 0.04058 and 0.008923 and 0.1117 and -0.006138 and 0.001246 and 0.02892 and 0.05005 and 0.02387 and -0.0088 and -0.01073 and 0.2624
- Ca2+ response (delta ratio), P58H/N264H (mGlu1 P58H/N264H mutant; Fig.1e): -0.01421
- Ca2+ response of individual cells (source data Suppl Fig1), P58H/N264H (mGlu1 P58H/N264H mutant; single-cell values #1-#20, P58H/N264H): -0.02928 and 0.02135 and -0.1614 and -0.04317 and -0.03766 and -0.009985 and 0.06338 and -0.01091 and -0.1246 and -0.02604 and 0.008315 and -0.1403 and -0.007362 and 0.04025 and -0.04095 and 0.177 and 0.01632 and 0.001515 and 0.03036 and -0.0111
- Ca2+ response (delta ratio), A59H/N264H (mGlu1 A59H/N264H mutant; Fig.1e): -0.008971
- Ca2+ response of individual cells (source data Suppl Fig1), A59H/N264H (mGlu1 A59H/N264H mutant; single-cell values #1-#20, A59H/N264H): 0.01442 and -0.1061 and -0.004715 and -0.004738 and -0.008577 and -0.007731 and 0.0007462 and -0.01637 and -0.006738 and -0.004831 and 0.04273 and 0.05223 and 0.05741 and -0.09539 and -0.006538 and 0.01191 and -0.02261 and -0.005077 and -0.03944 and -0.03002
- Ca2+ response (delta ratio), K61H/N264H (mGlu1 K61H/N264H mutant; Fig.1e): -0.008802
- Ca2+ response of individual cells (source data Suppl Fig1), K61H/N264H (mGlu1 K61H/N264H mutant; single-cell values, K61H/N264H): -0.02337 and 0.01083 and -0.01322 and 0.006669 and -0.02188 and -0.01248 and -0.01492 and -0.01697 and -0.01238 and 0.05283 and -0.01893 and -0.01583 and -0.01651 and -0.01879
- Ca2+ response (delta ratio), P57H/N264H (mGlu1 P57H/N264H mutant; Fig.1e): 0.007634
- Ca2+ response of individual cells (source data Suppl Fig1), P57H/N264H (mGlu1 P57H/N264H mutant; single-cell values #1-#20, P57H/N264H): -0.009615 and 0.002477 and 0.01378 and 0.02434 and 0.0008462 and 0.008 and -0.0007 and 0.008062 and 0.01831 and -0.0008538 and 0.01338 and 0.01485 and 0.01 and 0.001692 and -0.005731 and 0.03126 and 0.0103 and 0.01328 and -0.004977 and 0.003977
- Ca2+ response (delta ratio), E60H/N264H (mGlu1 E60H/N264H mutant; Fig.1e): -0.0006131
- Ca2+ response of individual cells (source data Suppl Fig1), E60H/N264H (mGlu1 E60H/N264H mutant; single-cell values #1-#20, E60H/N264H): 0.001946 and 0.001985 and -0.004585 and 0.05012 and -0.01047 and -0.007438 and -0.008146 and -0.01882 and 0.02938 and -0.02675 and -0.0009231 and -0.009708 and 0.06405 and 0.006685 and -0.01392 and -0.007992 and -0.007615 and -0.01812 and -0.013 and -0.01895
- Ca2+ response of individual cells (source data Suppl Fig1), Vec [1]: 0.02461 and -0.003092 and 0.01753 and 0.02088 and 0.01475 and -0.003385 and 0.07142 and 0.01504 and 0.02807 and 0.04525 and 0.001746 and 0.01458 and 0.01948 and -0.006131 and 0.04009 and 0.01931 and 0.02889 and 0.01229 and -0.005492 and -0.004385
- Ca2+ response of individual cells (source data, sheet Suppl Fig1) [2]: 0.006485 and -0.01132 and -0.01643 and -0.02029 and -0.01602 and -0.0035
- Ca2+ response (delta ratio), Vec [3]: 0.01757
- Ca2+ response of individual cells (source data Suppl Fig1), A59H/A265H (mGlu1 A59H/A265H mutant [4]): -0.01552 and 0.009746 and -0.01265 and -0.0065 and 0.009708 and -0.002746 and 0.009762 and -0.01072 and 0.004462 and -0.01463 and 0.01478 and 0.0025 and 0.01092 and -0.009138
- Ca2+ response of individual cells (source data, sheet Suppl Fig1) [5]: -0.002923 and 0.002562 and 0.004815 and -0.0036 and -0.004154 and 0.002577
- Ca2+ response (delta ratio), A59H/A265H (mGlu1 A59H/A265H mutant [6]): -0.0005365
- Ca2+ response of individual cells (source data Suppl Fig1), A59H/G266H (mGlu1 A59H/G266H mutant [7]): -0.005931 and -0.06262 and 0.006338 and -0.05078 and -0.003546 and -0.0521 and 0.002277 and -0.02358 and 0.04298 and -0.0436 and -0.1049 and -0.001831 and 0.0158 and -0.01046
- Ca2+ response of individual cells (source data, sheet Suppl Fig1) [8]: -0.007831 and 0.008223 and -0.0022 and 0.006269 and -0.002515 and 0.01038
- Ca2+ response (delta ratio), A59H/G266H (mGlu1 A59H/G266H mutant [9]): -0.01398
